Source: patent US20240190874A1, “SMALL MOLECULE DEGRADERS OF ANDROGEN RECEPTOR” (THE REGENTS OF THE UNIVERSITY OF MICHIGAN, priority 2021, published 2024)
pIC50: −log10 of the molar value. Where two headings read alike, the source gives them in different places. One block for each compound: values may come before it.

Assays:
Format in all cases: cell-based
LNCaP cells = test: Cellular potency (IC50) in LNCaP cells
Description: (§1) Biological Assays. LNCaP and VCaP cells used were purchased from American Type Culture Collection (ATCC). LNCaP were grown in RPMI 1640 (Invitrogen) and VCaP cells were grown in DMEM with Glutamax (Invitrogen). All of the cells were supplemented with 10% fetal bovine serum (Invitrogen) at 37° C. in a humidified 5% CO2 incubator.

VCaP cells = test: Cellular potency (IC50) in VCaP cells
Description: as §1

AR = target: T1, AR (Homo sapiens, UniProt P10275); test: Degradation of AR in VCaP cells; conditions: for Dmax: VCaP
T1 construct: Degradation of AR; Cellular potency; host or cells: VCaP cells
T1 sequence (P10275 1-920): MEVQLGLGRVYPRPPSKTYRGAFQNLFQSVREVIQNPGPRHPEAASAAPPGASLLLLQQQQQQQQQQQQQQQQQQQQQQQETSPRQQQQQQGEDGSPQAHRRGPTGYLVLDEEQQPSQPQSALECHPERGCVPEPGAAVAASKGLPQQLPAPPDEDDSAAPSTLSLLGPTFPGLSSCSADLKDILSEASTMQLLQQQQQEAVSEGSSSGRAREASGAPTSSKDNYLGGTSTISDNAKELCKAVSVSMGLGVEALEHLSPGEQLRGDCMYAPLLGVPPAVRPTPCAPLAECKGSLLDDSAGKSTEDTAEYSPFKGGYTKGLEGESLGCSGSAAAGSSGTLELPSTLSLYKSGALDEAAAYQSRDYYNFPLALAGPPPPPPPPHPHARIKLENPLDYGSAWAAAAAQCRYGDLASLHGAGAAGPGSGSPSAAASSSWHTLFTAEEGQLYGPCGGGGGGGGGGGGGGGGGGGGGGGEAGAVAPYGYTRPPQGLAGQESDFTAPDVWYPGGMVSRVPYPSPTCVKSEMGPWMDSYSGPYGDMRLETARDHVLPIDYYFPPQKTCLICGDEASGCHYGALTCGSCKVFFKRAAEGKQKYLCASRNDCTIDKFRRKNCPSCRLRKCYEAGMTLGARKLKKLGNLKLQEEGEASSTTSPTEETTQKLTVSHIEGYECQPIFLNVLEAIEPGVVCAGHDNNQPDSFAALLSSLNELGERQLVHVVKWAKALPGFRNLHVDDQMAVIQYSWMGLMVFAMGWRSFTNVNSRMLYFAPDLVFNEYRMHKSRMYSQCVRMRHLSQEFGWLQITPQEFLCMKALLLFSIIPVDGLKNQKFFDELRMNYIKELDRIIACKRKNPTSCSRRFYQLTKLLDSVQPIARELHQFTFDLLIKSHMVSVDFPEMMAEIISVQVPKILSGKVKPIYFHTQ
Description: as §1

Compound: C[C@H]1CC2(CCN(c3ccc(S(=O)(=O)C4CCN(C5CN(c6ccc7c(c6)C(=O)N(C6CCC(=O)NC6=O)C7=O)C5)CC4)cc3)CC2)CN1c1ccc(C#N)c(Cl)c1 (stereo partly drawn) [compound 163]
pIC50 (LNCaP cells; Homo sapiens, LNCaP): > 8.00
pIC50 (VCaP cells; Homo sapiens, VCaP): > 8.00
DC50 (AR; VCaP cells): < 1 nM

Compound: C[C@H]1CC2(CCN(c3ccc(OC4CCN(C5CN(c6cc7c(cc6F)C(=O)N(C6CCC(=O)NC6=O)C7=O)C5)CC4)cn3)CC2)CN1c1ccc(C#N)c(Cl)c1 (stereo partly drawn) [compound 132]
pIC50 (LNCaP cells; Homo sapiens, LNCaP): > 8.00
pIC50 (VCaP cells; Homo sapiens, VCaP): > 8.00
DC50 (AR; VCaP cells): < 1 nM
Dmax (AR; VCaP cells): > 90%

Compound: C[C@H]1CC2(CCN(c3cnc(CN4CCN(C5CN(c6ccc7c(c6)C(=O)N(C6CCC(=O)NC6=O)C7=O)C5)CC4)cn3)CC2)CN1c1ccc(C#N)c(Cl)c1 (stereo partly drawn) [compound 185]
pIC50 (LNCaP cells; Homo sapiens, LNCaP): > 7.00
pIC50 (VCaP cells; Homo sapiens, VCaP): > 7.00
DC50 (AR; VCaP cells): < 1 nM

Compound: C[C@H]1CC2(CCN(c3ccc(N4CCN(CC5CN(c6ccc7c(c6)C(=O)N(C6CCC(=O)NC6=O)C7=O)C5)CC4)cc3F)CC2)CN1c1ccc(C#N)c(Cl)c1 (stereo partly drawn) [compound 37]
pIC50 (LNCaP cells; Homo sapiens, LNCaP): > 8.00
pIC50 (VCaP cells; Homo sapiens, VCaP): > 8.00
DC50 (AR; VCaP cells): < 1 nM
Dmax (AR; VCaP cells): > 90%

Compound: C[C@H]1CC2(CCN(c3ccc(N4CCC(CN5Cc6cc7c(cc6C5)C(=O)N(C5CCC(=O)NC5=O)C7=O)CC4)nc3)CC2)CN1c1ccc(C#N)c(Cl)c1 (stereo partly drawn) [compound 54]
pIC50 (LNCaP cells; Homo sapiens, LNCaP): > 7.00
pIC50 (VCaP cells; Homo sapiens, VCaP): > 7.00
DC50 (AR; VCaP cells): < 10 nM
Dmax (AR; VCaP cells): > 90%

Compound: C[C@H]1CC2(CCN(c3ccc(CC4CCN(CC5CCN(c6ccc7c(c6)C(=O)N(C6CCC(=O)NC6=O)C7=O)CC5)CC4)cc3)CC2)CN1c1ccc(C#N)c(Cl)c1 (stereo partly drawn) [compound 26]
pIC50 (LNCaP cells; Homo sapiens, LNCaP): > 8.00
pIC50 (VCaP cells; Homo sapiens, VCaP): > 8.00
DC50 (AR; VCaP cells): < 1 nM
Dmax (AR; VCaP cells): > 90%

Compound: C[C@H]1CC2(CCN(c3ccc(S(=O)(=O)N4CCN(C5CCN(c6ccc7c(c6)C(=O)N(C6CCC(=O)NC6=O)C7=O)CC5)CC4)cc3)CC2)CN1c1ccc(C#N)c(Cl)c1 (stereo partly drawn) [compound 1]
DC50 (AR; VCaP cells): < 1 nM
Dmax (AR; VCaP cells): > 90%

Compound: C[C@H]1CC2(CCN(c3ccc(CN4CCC(C5CN(c6ccc7c(c6)C(=O)N(C6CCC(=O)NC6=O)C7=O)C5)CC4)c(F)c3)CC2)CN1c1ccc(C#N)c(Cl)c1 (stereo partly drawn) [compound 41]
pIC50 (LNCaP cells): > 7.00
pIC50 (VCaP cells): > 7.00
DC50 (AR; VCaP cells): < 10 nM
Degradation of AR in VCaP cells Dmax (AR; VCaP cells): A (A = >90%)

Compound: C[C@H]1CC2(CCN(c3ccc(N4CCN(CC5CCN(c6ccc7c(c6)C(=O)N(C6CCC(=O)NC6=O)C7=O)CC5)CC4)cn3)CC2)CN1c1ccc(C#N)c(Cl)c1 (stereo partly drawn) [compound 32]
pIC50 (LNCaP cells; Homo sapiens, LNCaP): > 8.00
pIC50 (VCaP cells; Homo sapiens, VCaP): > 8.00
DC50 (AR; VCaP cells): < 1 nM
Dmax (AR; VCaP cells): > 90%

Compound: C[C@H]1CC2(CCN(c3ccc(OC4CCN(C5CN(c6ccc7c(c6)C(=O)N(C6CCC(=O)NC6=O)C7=O)C5)CC4)cc3)CC2)CN1c1ccc(C#N)c(Cl)c1 (stereo partly drawn) [compound 57]
pIC50 (LNCaP cells; Homo sapiens, LNCaP): > 8.00
pIC50 (VCaP cells; Homo sapiens, VCaP): > 8.00
DC50 (AR; VCaP cells): < 1 nM
Dmax (AR; VCaP cells): > 90%

Compound: C[C@H]1CC2(CCN(c3ccc(CN4CC(N5CCN(c6cc7c(cc6F)C(=O)N(C6CCC(=O)NC6=O)C7=O)CC5)C4)cn3)CC2)CN1c1ccc(C#N)c(Cl)c1 (stereo partly drawn) [compound 205]
pIC50 (LNCaP cells; Homo sapiens, LNCaP): > 8.00
pIC50 (VCaP cells; Homo sapiens, VCaP): > 8.00
DC50 (AR; VCaP cells): < 1 nM

Compound: C[C@H]1CC2(CCN(c3ccc(N4CCN(CC5(F)CN(c6ccc7c(c6)C(=O)N(C6CCC(=O)NC6=O)C7=O)C5)CC4)cn3)CC2)CN1c1ccc(C#N)c(Cl)c1 (stereo partly drawn) [compound 88]
DC50 (AR; VCaP cells): < 1 nM
Dmax (AR; VCaP cells): > 90%

Compound: COC1(CN2CCN(c3ccc(N4CCC5(CC4)C[C@H](C)N(c4ccc(C#N)c(Cl)c4)C5)nc3)CC2)CN(c2ccc3c(c2)C(=O)N(C2CCC(=O)NC2=O)C3=O)C1 (stereo partly drawn) [compound 89]
DC50 (AR; VCaP cells): < 1 nM
Dmax (AR; VCaP cells): > 90%

Compound: COC1(CN2CCN(c3ccc(N4CCC5(CC4)C[C@H](C)N(c4ccc(C#N)c(Cl)c4)C5)cc3)CC2)CN(c2ccc3c(c2)C(=O)N(C2CCC(=O)NC2=O)C3=O)C1 (stereo partly drawn) [compound 85]
DC50 (AR; VCaP cells): < 1 nM
Dmax (AR; VCaP cells): > 90%

Compound: C[C@H]1CC2(CCN(c3ccc(CN4CCN(C5CN(c6cc7c(cc6F)C(=O)N(C6CCC(=O)NC6=O)C7=O)C5)CC4)cn3)CC2)CN1c1ccc(C#N)c(Cl)c1 (stereo partly drawn) [compound 153, 2-chloro-4-((3S)-8-(5-((4-(1-(2-(2,6-dioxopiperidin-3-yl)-6-fluoro-1,3-dioxoisoindolin-5-yl)azetidin-3-yl)piperazin-1-yl)methyl)pyridin-2-yl)-3-methyl-2,8-diazaspiro[4.5]decan-2-yl)benzonitrile]
pIC50 (LNCaP cells; Homo sapiens, LNCaP): > 8.00
pIC50 (VCaP cells; Homo sapiens, VCaP): > 7.00

Compound: C[C@H]1CC2(CCN(c3ccc(CN4CCN(C5CN(c6ccc7c(c6)C(=O)N(C6CCC(=O)NC6=O)C7=O)C5)CC4)nc3)CC2)CN1c1ccc(C#N)c(Cl)c1 (stereo partly drawn) [compound 169, 2-chloro-4-((3S)-8-(6-((4-(1-(2-(2,6-dioxopiperidin-3-yl)-1,3-dioxoisoindolin-5-yl)azetidin-3-yl)piperazin-1-yl)methyl)pyridin-3-yl)-3-methyl-2,8-diazaspiro[4.5]decan-2-yl)benzonitrile]
pIC50 (LNCaP cells; Homo sapiens, LNCaP): > 8.00
pIC50 (VCaP cells; Homo sapiens, VCaP): > 8.00

Compound: C[C@H]1CC2(CCN(c3ccc(N4CCN(CC5(F)CN(c6ccc7c(c6)C(=O)N(C6CCC(=O)NC6=O)C7=O)C5)CC4)cc3)CC2)CN1c1ccc(C#N)c(Cl)c1 (stereo partly drawn) [compound 84]
DC50 (AR; VCaP cells): < 1 nM
Dmax (AR; VCaP cells): > 90%

Compound: C[C@H]1CC2(CCN(c3cnc(CN4CCN(C5CN(c6ccc7c(c6)C(=O)N(C6CCC(=O)NC6=O)C7=O)C5)CC4)nc3)CC2)CN1c1ccc(C#N)c(Cl)c1 (stereo partly drawn) [compound 170, 2-chloro-4-((3S)-8-(2-((4-(1-(2-(2,6-dioxopiperidin-3-yl)-1,3-dioxoisoindolin-5-yl)azetidin-3-yl)piperazin-1-yl)methyl)pyrimidin-5-yl)-3-methyl-2,8-diazaspiro[4.5]decan-2-yl)benzonitrile]
pIC50 (LNCaP cells; Homo sapiens, LNCaP): > 8.00
pIC50 (VCaP cells; Homo sapiens, VCaP): > 7.00

Compound: COC1(CN2CCN(c3ccc(N4CCC5(CC4)C[C@H](C)N(c4ccc(C#N)c(Cl)c4)C5)cn3)CC2)CN(c2ccc3c(c2)C(=O)N(C2CCC(=O)NC2=O)C3=O)C1 (stereo partly drawn) [compound 87]
DC50 (AR; VCaP cells): < 1 nM
Dmax (AR; VCaP cells): > 90%

Compound: C[C@H]1CC2(CCN(c3ccc(N4CCN(CC5(F)CN(c6ccc7c(c6)C(=O)N(C6CCC(=O)NC6=O)C7=O)C5)CC4)nc3)CC2)CN1c1ccc(C#N)c(Cl)c1 (stereo partly drawn) [compound 86]
DC50 (AR; VCaP cells): < 1 nM
Dmax (AR; VCaP cells): > 90%

Compound: C[C@H]1CC2(CCN(c3ccc(CN4CCN(C5CN(c6ccc7c(c6)C(=O)N(C6CCC(=O)NC6=O)C7=O)C5)CC4)cn3)CC2)CN1c1ccc(C#N)c(Cl)c1 (stereo partly drawn) [compound 167]
pIC50 (LNCaP cells; Homo sapiens, LNCaP): > 8.00
pIC50 (VCaP cells; Homo sapiens, VCaP): > 8.00

Compound: C[C@H]1CC2(CCN(c3ccc(C(=O)C4CCN(CC(=O)N5Cc6cc7c(cc6C5)C(=O)N(C5CCC(=O)NC5=O)C7=O)CC4)cc3)CC2)CN1c1ccc(C#N)c(Cl)c1 (stereo partly drawn) [compound 147, 2-chloro-4-((3S)-8-(4-(1-(2-(6-(2,6-dioxopiperidin-3-yl)-5,7-dioxo-3,5,6,7-tetrahydropyrrolo[3,4-f]isoindol-2(1H)-yl)-2-oxoethyl)piperidine-4-carbonyl)phenyl)-3-methyl-2,8-diazaspiro[4.5]decan-2-yl)benzonitrile]
pIC50 (LNCaP cells; Homo sapiens, LNCaP): > 8.00
pIC50 (VCaP cells; Homo sapiens, VCaP): > 7.00

Compound: C[C@H]1CC2(CCN(c3ccc(C4CCN(C(=O)CN5Cc6cc7c(cc6C5)C(=O)N(C5CCC(=O)NC5=O)C7=O)CC4)cc3)CC2)CN1c1ccc(C#N)c(Cl)c1 (stereo partly drawn) [compound 15]
DC50 (AR; VCaP cells): < 100 nM
Dmax (AR; VCaP cells): > 90%

Compound: C[C@H]1CC2(CCN(c3ccc(C(=O)C4CCN(C(=O)CN5Cc6cc7c(cc6C5)C(=O)N(C5CCC(=O)NC5=O)C7=O)CC4)cc3)CC2)CN1c1ccc(C#N)c(Cl)c1 (stereo partly drawn) [compound 148, 2-chloro-4-((3S)-8-(4-(1-(2-(6-(2,6-dioxopiperidin-3-yl)-5,7-dioxo-3,5,6,7-tetrahydropyrrolo[3,4-f]isoindol-2(1H)-yl)acetyl)piperidine-4-carbonyl)phenyl)-3-methyl-2,8-diazaspiro[4.5]decan-2-yl)benzonitrile]
pIC50 (LNCaP cells; Homo sapiens, LNCaP): > 8.00
pIC50 (VCaP cells; Homo sapiens, VCaP): > 7.00

Dmax (AR): > 90%
DC50 (AR; VCaP cells): < 100 nM
Compound: COC1(CN2Cc3cc4c(cc3C2)C(=O)N(C2CCC(=O)NC2=O)C4=O)CCN(C(=O)c2ccc(N3CCC4(CC3)C[C@H](C)N(c3ccc(C#N)c(F)c3)C4)cc2)CC1 (stereo partly drawn) [compound 13]

Compound: C[C@H]1CC2(CCN(c3ccc(CN4CCC(C5CCN(c6ccc7c(c6)C(=O)N(C6CCC(=O)NC6=O)C7=O)CC5)CC4)cn3)CC2)CN1c1ccc(C#N)c(Cl)c1 (stereo partly drawn) [compound 180, 2-chloro-4-((3S)-8-(5-((1′-(2-(2,6-dioxopiperidin-3-yl)-1,3-dioxoisoindolin-5-yl)-[4,4′-bipiperidin]-1-yl)methyl)pyridin-2-yl)-3-methyl-2,8-diazaspiro[4.5]decan-2-yl)benzonitrile]
pIC50 (LNCaP cells; Homo sapiens, LNCaP): > 8.00
pIC50 (VCaP cells; Homo sapiens, VCaP): > 7.00
